According to article PMC4843953, “Eukaryotic elongation factor 2 kinase regulates the synthesis of microtubule‐related proteins in neurons” (Journal of Neurochemistry, 2015):

Assays:
Type in all cases: cell-based, mice
eEF2 phosphorylation = assay: p-eEF2 levels in primary cortical neurons (immunoblot)
Text: Primary neuronal cortical cultures were isolated from P0 or P1 C57BL/6J mice, or eEF2K‐WT or KO mice of either sex as previously described (Wong et al. 2005; Kenney et al. 2015). eEF2K mice were generated by Taconic Biosciences, Cranbury, NJ, USA; all mice were bred from colonies maintained at the Southampton General Hospital. All procedures involving mice were done in accordance with United Kingdom Animals (Scientific Procedures) Act 1986 and approved by the University of Southampton.
Figure 1 Combining pharmacological and genetic strategies with stable isotope labeling of amino acids in cell culture (SILAC)/bio‐orthogonal non‐canonical amino acid tagging (BONCAT) labeling to identify proteins whose synthesis is regulated by eEF2K. (a) Top, the effect of bicuculline administration on p‐eEF2 levels. […] Bottom, examination of the effect of bicuculline on p‐eEF2 levels in neurons from eEF2K‐WT or KO mice. Blots are representative of three to four independent experimental replicates. (b) Experimental designs for combined SILAC/BONCAT labeling to identify proteins whose synthesis are affected by eEF2K inhibition. […] Protein localization was determined using DAVID (Huang et al. 2009), or where DAVID lacked annotation, NCBI.
(§1) Immunoblot data were quantified using LICOR software (version 3.0, Lincoln, NE, USA). Data were analyzed using two‐way ANOVAs. […]

[1] = system: mRNA levels (Calm, Nsf, Ppp1 cc, Kif5a, Map2, Map1b, Arc); assay: qRT-PCR of total mRNA levels in primary cortical neurons; conditions: bicuculline 50 μM, 60 min; p < 0.001
Protocol: Neurons were treated with bicuculline (50 μM) or vehicle dimethylsulfoxide for 60 min prior to lysis. JAN‐452 or JAN‐384 was administered 30 min prior to bicuculline/vehicle. RNA was purified from cultures using the GeneJET RNA purification kit (K0731; Thermo Fisher, Waltham, MA, USA) and QIAshredder spin columns (79656; Qiagen, Valencia, CA, USA). One μg of RNA was reverse transcribed using the ImProm‐II reverse transcription system (Promega, Madison, WI, USA). qPCR was performed with 1 μL of cDNA using the GoTaq qPCR master mix (A6001; Promega) on a StepOne real‐time PCR system (Life Technologies, Grand Island, NY, USA). PCR conditions were as follows: 95°C for 2 min followed by 40 cycles of 95°C for 15 s and 60°C for 45 s. Median Ct values from samples run in triplicate were used for analysis using the ΔΔCt method with Gapdh as the control. Prior to use in experiments, all primer pairs were determined to be efficient (100 ± 10%) and yield only one appropriately sized product based on melt‐curve analysis and agarose gel electrophoresis. Primers were as follows: Calm: 5′‐[…]‐3′ and 5′‐[…]‐3′; Nsf: 5′‐ […]‐3′ and 5′‐[…]‐3′; Ppp1 cc: 5′‐ […]‐3′ and 5′‐[…]‐3′; Kif5a: 5′‐ […]‐3′ and 5′‐[…]‐3′; Map2: 5′‐ […]‐3′ and 5′‐[…]‐3′; Map1b: 5′‐ CGGACAGTGCTTTGAGAAC‐3′ and 5‐GTGAGGCTGGCTTTGTTG‐3′; Gapdh: 5′‐[…]‐3′ and 5′‐[…]‐3′; Arc: 5′‐[…]‐3′ and 5′‐[…]‐3′. […]

newly synthesized NSF = assay: Newly synthesized protein, AHA labeling, streptavidin isolation and western blot; conditions: AHA labeling 1 h; 2 × 2 ANOVA
Protocol: (§2) Neurons were starved of Met for 30 min in Met‐free neurobasal medium and then labeled for 1 h in the presence of 2 mM AHA. After labeling, neurons were washed three times in ice cold phosphate‐buffered saline (PBS) and then lysed [50 mM Tris‐HCl, 50 mM β‐glycerophosphate, 1 mM EGTA, 1 mM EDTA, 1% Triton‐X, 2 × protease inhibitors (Roche Molecular Biochemicals, Indianapolis, IN, USA)] on ice. The lysate was centrifuged at 14 000 g for 10 min at 4°C and the supernatant was used for click‐chemistry using a biotin‐alkyne (B10185; Invitrogen, Carlsbad, CA, USA) and the protein reaction kit (C10276; Invitrogen) so that only newly synthesized proteins are tagged with biotin. Un‐reacted biotin was removed via gel‐filtration (GE; PD MiniTrap G‐25) using PBS‐T (0.01% Tween) as flow‐through. […]
as §1
(§3) Figure 3 Confirmation of two eEF2K targets identified via stable isotope labeling of amino acids in cell culture (SILAC)/bio‐orthogonal non‐canonical amino acid tagging (BONCAT). […] (c) Quantification of western blot data. *p < 0.01 via 2 × 2 (bicuculline × eEF2K inhibitor) ANOVA; n = 8–9.

newly synthesized PPP1CC = assay: as above; conditions: AHA labeling 1 h; 2 × 2 ANOVA
Protocol: as §2, §1, §3

SMILES: CN1CCc2cc3c(cc2[C@H]1[C@@H]1OC(=O)c2c1ccc1c2OCO1)OCO3 [bicuculline]
- eEF2 phosphorylation in neurons from eEF2K-KO mice (eEF2 phosphorylation; eEF2K-KO neurons, completely devoid of eEF2 phosphorylation): did not affect
- p-eEF2 level after bicuculline administration (eEF2 phosphorylation; primary cortical neurons, back to baseline levels after 60 min): rapid increase
- Arc mRNA [1]: large increase
- amount of newly synthesized NSF (newly synthesized NSF): no effect
- amount of newly synthesized PPP1CC (newly synthesized PPP1CC): no effect
